Measured values as given in article PMC5048337 (2016).

Legend:
[1] = system: c-Kit1 (FAM/TAMRA) (DNA, G4) AGGGAGGGCGCTGGGAGGAGGG; assay: FRET melting; conditions: 60 mM potassium cacodylate; pH 7.4; 1 μM compound, 0.2 μM oligonucleotide
[2] = system: h-TERT (FAM/TAMRA) (DNA, G4) GGGGGCTGGGCCGGGGACCCGGGAGGGGTCGGGACGGGGCGGGG; assay: FRET melting; conditions: 60 mM potassium cacodylate; pH 7.4; 1 μM compound, 0.2 μM oligonucleotide
[3] = system: bcl2 (FAM/TAMRA) (DNA, G4) AGGGGCGGGCGCGGGAGGAAGGGGGCGGGAGCGGGGCTG; assay: FRET melting; conditions: 60 mM potassium cacodylate; pH 7.4; 1 μM compound, 0.2 μM oligonucleotide
[4] = system: c-Kit1 (DNA, G4) AGGGAGGGCGCTGGGAGGAGGG; assay: UV-Vis titration, reciprocal plot (Wolfe); conditions: K+ 100 mM (KCl); 50 mM Tris-HCl, pH 7.5, 25 °C
[5] = system: h-TERT (DNA, G4) GGGGGCTGGGCCGGGGACCCGGGAGGGGTCGGGACGGGGCGGGG; assay: UV-Vis titration, reciprocal plot (Wolfe); conditions: K+ 100 mM (KCl); 50 mM Tris-HCl, pH 7.5, 25 °C
[6] = system: bcl2 (DNA, G4) AGGGGCGGGCGCGGGAGGAAGGGGGCGGGAGCGGGGCTG; assay: UV-Vis titration, reciprocal plot (Wolfe); conditions: K+ 100 mM (KCl); 50 mM Tris-HCl, pH 7.5, 25 °C
[7] = system: c-Kit1 (DNA, G4) AGGGAGGGCGCTGGGAGGAGGG; assay: UV-Vis titration, intrinsic method (Rodger and Nordén); conditions: K+ 100 mM (KCl); 50 mM Tris-HCl, pH 7.5, 25 °C
[8] = system: h-TERT (DNA, G4) GGGGGCTGGGCCGGGGACCCGGGAGGGGTCGGGACGGGGCGGGG; assay: as above; conditions: K+ 100 mM (KCl); 50 mM Tris-HCl, pH 7.5, 25 °C
[9] = system: bcl2 (DNA, G4) AGGGGCGGGCGCGGGAGGAAGGGGGCGGGAGCGGGGCTG; assay: as above; conditions: K+ 100 mM (KCl); 50 mM Tris-HCl, pH 7.5, 25 °C

| binding [1] | binding [2] | binding [3] | K b [4] | K b [5] | K b [6] | K b [7] | K b [8] | K b [9] | SMILES |
| --- | --- | --- | --- | --- | --- | --- | --- | --- | --- |
| yes | yes | yes | (2.4 ± 0.5) × 10^5 M^–1 | (1.1 ± 0.1) × 10^5 M^–1 | (2.0 ± 0.4) × 10^5 M^–1 | (4.9 ± 0.3) × 10^4 M^–1 | (3.7 ± 0.4) × 10^4 M^–1 | (3.4 ± 0.3) × 10^4 M^–1 | CC[N+](CC)(CC)Cc1ccc([O-])c(C=NCCN=Cc2cc(C[N+](CC)(CC)CC)ccc2[O-])c1.[Ni+2] |
| yes | yes | yes | – | – | – | – | – | – | CC[N+](CC)(CC)Cc1ccc([O-])c(C=NCCN=Cc2cc(C[N+](CC)(CC)CC)ccc2[O-])c1.[Cu+2] |
